# Reference: BindingDB's records for doi:10.1016/j.bmc.2009.10.004 (Kinki University, 2010)
# Biological target: Beta-secretase 1 (Homo sapiens, UniProt P56817)
# Test: Competitive inhibition of human recombinant BACE1 by Lineweaver-Burke plot analysis
# Chain of Beta-secretase 1 (P56817 whole entry): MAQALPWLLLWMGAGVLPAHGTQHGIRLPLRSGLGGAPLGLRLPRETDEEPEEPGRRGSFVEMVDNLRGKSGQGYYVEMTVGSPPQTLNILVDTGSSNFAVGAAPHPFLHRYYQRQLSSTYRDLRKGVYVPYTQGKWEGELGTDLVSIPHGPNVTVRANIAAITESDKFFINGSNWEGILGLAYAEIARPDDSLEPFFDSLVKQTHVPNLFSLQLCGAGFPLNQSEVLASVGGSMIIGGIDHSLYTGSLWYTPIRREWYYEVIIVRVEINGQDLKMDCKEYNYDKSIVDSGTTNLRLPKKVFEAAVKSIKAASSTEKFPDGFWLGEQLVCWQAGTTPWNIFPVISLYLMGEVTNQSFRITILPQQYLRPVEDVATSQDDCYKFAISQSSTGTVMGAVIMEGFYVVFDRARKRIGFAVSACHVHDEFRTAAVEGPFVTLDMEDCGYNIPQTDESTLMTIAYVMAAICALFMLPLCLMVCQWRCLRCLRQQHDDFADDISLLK
compound,measurement,value
"COC(=O)CCc1c(O)cc2occc2c1OCC=C(C)C [6,7-Furano-5-prenyloxy hydrocoumaric acid methyl ester]",Ki,11.3 µM
